Assay results: PMC7463460, “Structure and Antiparasitic Activity Relationship of Alkylphosphocholine Analogues against Leishmania donovani” (Microorganisms, 2020)
Several values for one entry are separate records, joined by “and”; a condition that tells them apart may be missing. Equal values may be shown once.

Tests used:
L. donovani strain LV82 = experiment: Murine VL model, parasite burdens in spleen, liver and bone marrow; assay type: in vivo, Leishmania donovani in BALB/c mice
Procedure: BALB/c mice were infected by intravenous injection (tail vein, no anesthetic) with 1–2 × 10^7 L. donovani strain LV82 amastigote parasites, obtained from the spleen of an infected hamster. Mice (n = 4/treatment) were treated with PBS pH 7.4 (controls) or APC12 (40 or 80 mg/kg) by intravenous injection (tail vein, no anesthetic, 0.2 mL) on days 7 and 8 post-infection or a single oral dose on day 7 post-infection. Milt was not given orally at a dose of 80 mg/kg because of its potential toxicity. On day 14, parasite burdens in the liver, spleen and bone marrow were determined. Results are from duplicate experiments, however, if a treatment had no significant effect then it […] in subsequent experiments.

visceral leishmaniasis = conditions: VL monotherapy, Nepal, 12 months post-treatment; cited from earlier work
[1] = two-component population PK model; listed as Milt; cited from earlier work
[2] = 40 mg/kg IV, assessed day 14, Experiment 2
[3] = 40 mg/kg oral, day 7 post-infection, assessed day 14, Experiment 1
[4] = 80 mg/kg oral, assessed day 14, Experiment 2

## CCCCCCCCCCCCOP(=O)([O-])OCC[N+](C)(C)C [APC12, dodecylphosphocholine]
L. donovani strain LV82; [2]
  Mean Parasite Burden ± SD Bone Marrow: 555 ± 254
  Mean Parasite Burden ± SD Liver: 434 ± 197
  Mean Parasite Burden ± SD Spleen: 112 ± 30
  mean percentage suppression ± SD in parasite burden, Bone Marrow: 8 ± 14%
  mean percentage suppression ± SD in parasite burden, Liver: 60 ± 11% and 60 ± 19%
  mean percentage suppression ± SD in parasite burden, Spleen: 60 ± 19% and 60 ± 11%
L. donovani strain LV82; [3]
  Mean Parasite Burden ± SD Bone Marrow: 210 ± 90
  Mean Parasite Burden ± SD Liver: 880 ± 276
  Mean Parasite Burden ± SD Spleen: 275 ± 96
  mean percentage suppression ± SD in parasite burden, Bone Marrow: 54 ± 34%
  mean percentage suppression ± SD in parasite burden, Liver: 36 ± 34%
  mean percentage suppression ± SD in parasite burden, Spleen: 8 ± 18%
L. donovani strain LV82; [4]
  Mean Parasite Burden ± SD Bone Marrow: 607 ± 115
  Mean Parasite Burden ± SD Liver: 939 ± 170
  Mean Parasite Burden ± SD Spleen: 257 ± 73
  mean percentage suppression ± SD in parasite burden, Bone Marrow: 2 ± 4%
  mean percentage suppression ± SD in parasite burden, Liver: 27 ± 16%
  mean percentage suppression ± SD in parasite burden, Spleen: 13 ± 27%

## CCCCCCCCCCCCCCCCOP(=O)([O-])OCC[N+](C)(C)C [APC16, hexadecylphosphocholine, reference compound]
L. donovani strain LV82; [3]
  Mean Parasite Burden ± SD Bone Marrow: 197 ± 157
  Mean Parasite Burden ± SD Liver: 433 ± 46
  Mean Parasite Burden ± SD Spleen: 73 ± 68
  mean percentage suppression ± SD in parasite burden, Bone Marrow: 30 ± 35%
  mean percentage suppression ± SD in parasite burden, Liver: 40 ± 25%
  mean percentage suppression ± SD in parasite burden, Spleen: 53 ± 31%
Visceral leishmaniasis
  relapse rate: 20%
[1]
  threshold concentration between non-saturable and saturable component: 50 μM and 20.4 μg/mL
